The target in experiment [1] is T1, Protein cereblon/Interleukin-1 receptor-associated kinase 4 (Homo sapiens) (UniProt Q9NWZ3+Q96SW2). Nature of the experiment: PROTAC activity at CRBN/IRAK4 in human PBMC cells assessed as induction of degradation at 1 uM measured after 24 hrs by Immuno-blotting analysis relative to control. Type of experiment: cell-based.
Experiment [2] has as its target T1, Protein cereblon/Interleukin-1 receptor-associated kinase 4 (Homo sapiens). As to the kind of experiment: PROTAC activity at CRBN/IRAK4 in human PBMC cells assessed as induction of degradation at 0.01 uM measured after 24 hrs by Immuno-blotting analysis relative to control. Format: cell-based.
Experiment [3] has the same target. Nature of the experiment: PROTAC activity at CRBN/IRAK4 in human PBMC cells assessed as induction of degradation at 0.1 uM measured after 24 hrs by Immuno-blotting analysis relative to control. Type of experiment: cell-based.
Experiment [4] deals with Protein cereblon/Interleukin-1 receptor-associated kinase 4 (Homo sapiens, UniProt Q96SW2+Q9NWZ3). Nature of the experiment: Binding affinity to CRBN/IRAK4 in human PBMC cells assessed as inhibition of LPS-stimulated IL-6 production incubated for 24 hrs by MSD analysis. Type of experiment: cell-based.
Protein cereblon/Interleukin-1 receptor-associated kinase 4, sequence (Q96SW2 whole entry, one chain of several): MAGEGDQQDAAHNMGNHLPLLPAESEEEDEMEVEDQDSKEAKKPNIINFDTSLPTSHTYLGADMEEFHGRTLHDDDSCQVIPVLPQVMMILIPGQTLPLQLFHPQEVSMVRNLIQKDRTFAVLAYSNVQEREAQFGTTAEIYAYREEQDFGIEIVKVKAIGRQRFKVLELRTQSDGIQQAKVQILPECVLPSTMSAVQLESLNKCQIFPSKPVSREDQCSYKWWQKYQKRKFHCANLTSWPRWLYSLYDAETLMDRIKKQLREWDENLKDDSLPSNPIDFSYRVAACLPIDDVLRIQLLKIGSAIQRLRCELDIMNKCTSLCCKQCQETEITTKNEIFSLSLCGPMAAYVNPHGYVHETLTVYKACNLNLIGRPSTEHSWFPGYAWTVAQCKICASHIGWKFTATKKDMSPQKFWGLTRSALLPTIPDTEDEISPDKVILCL
The target of experiment [5] is T2, Interleukin-1 receptor-associated kinase 4 (Homo sapiens, UniProt Q9NWZ3).
T2 sequence (Q9NWZ3 whole entry): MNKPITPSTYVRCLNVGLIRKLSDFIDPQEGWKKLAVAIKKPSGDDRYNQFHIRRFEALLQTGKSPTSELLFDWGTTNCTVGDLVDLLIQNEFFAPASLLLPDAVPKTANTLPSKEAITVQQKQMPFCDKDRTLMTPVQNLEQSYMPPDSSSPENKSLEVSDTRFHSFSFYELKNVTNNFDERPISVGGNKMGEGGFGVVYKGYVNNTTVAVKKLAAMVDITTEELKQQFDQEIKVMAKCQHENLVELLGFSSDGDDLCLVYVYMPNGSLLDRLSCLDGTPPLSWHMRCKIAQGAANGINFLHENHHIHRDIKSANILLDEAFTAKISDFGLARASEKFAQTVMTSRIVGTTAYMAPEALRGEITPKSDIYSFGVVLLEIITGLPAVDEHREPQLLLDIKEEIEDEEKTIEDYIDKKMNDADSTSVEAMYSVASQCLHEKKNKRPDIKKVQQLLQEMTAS
As to the kind of experiment: Inhibition of IRAK4 (unknown origin).

In experiment [6] the target is T2, Interleukin-1 receptor-associated kinase 4. Nature of the experiment: Inhibition of IRAK4 (unknown origin) by Ambit kinase assay.
For another experiment, the target named is Cyclic GMP-AMP synthase (Homo sapiens, UniProt Q8N884). Nature of the experiment: Inhibition of cyclic GMP-AMP synthase (unknown origin).
Cyclic GMP-AMP synthase, sequence (Q8N884 whole entry): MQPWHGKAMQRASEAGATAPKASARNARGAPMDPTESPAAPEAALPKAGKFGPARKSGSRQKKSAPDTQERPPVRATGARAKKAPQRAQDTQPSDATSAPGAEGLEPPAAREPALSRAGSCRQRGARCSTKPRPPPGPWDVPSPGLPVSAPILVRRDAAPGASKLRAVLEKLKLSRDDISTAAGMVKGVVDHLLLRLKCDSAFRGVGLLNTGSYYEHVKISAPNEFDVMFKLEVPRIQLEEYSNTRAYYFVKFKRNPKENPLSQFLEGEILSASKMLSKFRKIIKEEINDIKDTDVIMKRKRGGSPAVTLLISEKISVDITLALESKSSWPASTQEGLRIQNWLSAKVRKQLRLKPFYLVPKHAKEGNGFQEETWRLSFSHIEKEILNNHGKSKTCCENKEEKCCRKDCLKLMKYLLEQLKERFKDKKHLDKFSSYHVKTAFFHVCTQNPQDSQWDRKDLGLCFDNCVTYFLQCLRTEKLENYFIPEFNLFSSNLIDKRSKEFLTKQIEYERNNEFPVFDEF
Experiment [7] addresses Interleukin-1 receptor-associated kinase 1 (Homo sapiens, UniProt P51617). Nature of the experiment: Inhibition of IRAK1 (unknown origin) by Ambit kinase assay.
The target of experiment [8] is T2, Interleukin-1 receptor-associated kinase 4. Nature of the experiment: Inhibition of IRAK4 (unknown origin) by discoverX kinome scan assay.

Drawing on ChEMBL document CHEMBL5634072, “The recent advance of Interleukin-1 receptor associated kinase 4 inhibitors for the treatment of inflammation and related diseases” (Eur J Med Chem, 2023), this text covers Activity, IC50 and EC50 for 12 compounds.

T1 sequence (Q96SW2 whole entry, looked up, one chain of several): as the sequence (Q96SW2 whole entry, one chain of several) above
Interleukin-1 receptor-associated kinase 1, sequence (P51617 whole entry): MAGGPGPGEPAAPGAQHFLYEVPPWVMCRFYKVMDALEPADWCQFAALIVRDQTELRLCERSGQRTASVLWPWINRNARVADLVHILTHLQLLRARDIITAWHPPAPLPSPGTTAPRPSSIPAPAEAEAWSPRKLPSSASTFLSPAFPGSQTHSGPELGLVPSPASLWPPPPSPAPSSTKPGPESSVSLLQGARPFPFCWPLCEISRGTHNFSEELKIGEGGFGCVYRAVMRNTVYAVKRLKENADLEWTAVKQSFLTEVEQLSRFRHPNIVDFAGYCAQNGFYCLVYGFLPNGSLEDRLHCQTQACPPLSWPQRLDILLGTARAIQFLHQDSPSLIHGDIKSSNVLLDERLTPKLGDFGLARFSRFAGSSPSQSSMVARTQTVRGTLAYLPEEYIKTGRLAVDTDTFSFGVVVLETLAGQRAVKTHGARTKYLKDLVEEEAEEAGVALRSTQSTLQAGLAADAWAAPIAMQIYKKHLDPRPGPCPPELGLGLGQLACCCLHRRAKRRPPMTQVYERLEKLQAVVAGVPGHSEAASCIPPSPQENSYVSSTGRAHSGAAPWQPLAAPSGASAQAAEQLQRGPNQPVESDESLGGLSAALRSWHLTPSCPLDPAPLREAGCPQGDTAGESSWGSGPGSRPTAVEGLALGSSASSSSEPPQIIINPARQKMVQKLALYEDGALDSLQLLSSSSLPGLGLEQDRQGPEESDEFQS

For the compound `O=C1CCC(N2C(=O)c3cccc(NCc4cn(CCCNC(=O)c5ccc(-n6cc(NC(=O)c7coc(-c8ccnc(NCC9CC9)c8)n7)c(C(F)(F)F)n6)cc5)cn4)c3C2=O)C(=O)N1` (centres undefined), the Activity in [1] was greater than 50%; in [2] it was less than 20%; in experiment [3], greater than 20%.
With `Cn1cc2c(n1)C(=O)NCC1CN(CCO1)C(=O)OCCn1cc(cn1)-c1cccc(n1)C(=O)N2` (centres undefined), the IC50 (usually the concentration at which inhibition is half-maximal) in experiment [4] came out at 100 nM.
In experiment [5], `O=C(Nc1ccc(CN2CCNCC2)c(C(F)(F)F)c1)c1cccc(-c2ccc3nc(NC(=O)C4CC4)sc3n2)c1` showed an IC50 of 165 nM.
Still for that read-out and setting: the result for `CC(C)CCNC(=O)c1ccc2c(c1)nc(Nc1n[nH]c3ccc(-c4ccccc4OC(F)(F)F)cc13)n2C1CCC(O)CC1` (centres undefined) reads less than 10 nM.
For `Cn1cc2c(n1)C(=O)NCCn1cc(cn1)-c1ccc(=O)n(n1)Cc1cccc(c1)C(=O)N2`, the IC50 in [4] was less than 100 nM.
In turn, `CC(C)(O)CCn1cc2cc(NC(=O)c3cccc(C(F)(F)F)n3)c(C3COC3)cc2n1` gave an IC50 in experiment [6] of 1.6 nM.
Regarding `Cc1ccn2c(C(=O)C(=O)c3ccccc3)c(-c3ccccc3)nc2c1`, on Cyclic GMP-AMP synthase, half-maximal inhibition (IC50) was put at 2.1 nM.
On to `Cc1cc(-c2nc(C(=O)Nc3cc4cn(CCC(C)(C)O)nc4cc3C(C)(C)O)co2)ccn1`, for which half-maximal inhibition in [6] (IC50) was put at 0.55 nM.
For the compound `CCO[C@H]1CC[C@@H](n2cc(NC(=O)c3csc(-c4cn[nH]c4)n3)c(-c3nc(F)ccc3F)n2)CC1`, the EC50 (commonly the midpoint of the concentration-response curve) in experiment [5] was 195 nM.
`CN(C)[C@H]1CC[C@H](Oc2ncnc3sc4c(c23)[C@@H](CCC#N)CC4)CC1` came in with an IC50 in experiment [7] of less than 5000 nM.
In experiment [8], `O=C1Nc2cn(C3CCOCC3)nc2C(=O)NCCOCCCc2cc(ccn2)-c2nc1cs2` came in with an IC50 of 1 nM.
Regarding `O=C1Nc2nc3ccccc3n2Cc2cc(ccn2)-c2ccc(=O)n(n2)Cc2cccc1c2`, in experiment [4], the IC50 was less than 100 nM.
